The record followed here is patent US9987299B2, “Methods of improving RNAi in well-differentiated airway epithelia” (University of Iowa Research Foundation, priority 2014, dated 2018).

One experiment deals with Human CFTR mRNA. The experiment can be described thus: CFTR mRNA silencing by CFTR DsiRNA-Transductin in well-differentiated HAE (RT-qPCR). Particulars: CFTR DsiRNA with simultaneous PAF treatment or spiperone pre-treatment. It counts as cell-based. How it is done: FIG. 4. […] Alternatively, spiperone was applied apically and basolaterally to well-differentiated HAE for 6 hours, and then removed by rinsing before incubation for 4 hours with CFTR-targeting or NC1 DsiRNAs complexed with Transductin. In both cases, 24 hours after transfection, and RNA levels quantified by RT-qPCR. (b) A representative immunoblot from similarly treated wells, but cells were lysed and proteins visualized after immunoprecipitation with anti-CFTR antibody. Alpha-tubulin was used as a loading control. (c) Densitometry readings of immunoblots with results normalized to NC1 treated samples. In all cases, data are from 3 biological replicates and are mean±SD. ***p<0.001, **p<0.01 (Student's t-test).
For well-differentiated airway epithelia, transfection was performed mostly according to the manufacturer's protocol. […]
Total RNA was isolated using SV96 RNA isolation kit (Promega, Madison, Wis.), according to manufacturer's protocol. […] One-fifteenth of the cDNA was then amplified and analyzed by using the 5′-nuclease assay in a 7900 Real Time PCR System (Applied Biosystems, Foster city, CA) using primer-probe pairs reaction buffer and Immolase DNA polymerase (Bioline, Taunton, Mass.). […] Absolute quantification of an mRNA target sequence within an unknown sample was determined by reference to a standard curve. […]

A further experiment concerns HAE. The experiment can be described thus: DIG-labeled DsiRNA entry and uptake into HAE (confocal imaging). It counts as cell-based, human. The note with it: PAF-treated HAE, 1 hour after transduction with Transductin, compared with control HAE. How it is done:
FIG. 2. PAF treatment enhances DsiRNA entry and uptake into cells. […] Blue, nuclei; green, DIG-labeled oligo. The images on the right and the left are from different fields.
The primary human airway epithelia grown at the air-liquid interface were transfected with the DIG-labeled DsiRNA at a concentration of 250 nM after complexing with Transductin. The transfection mixture was left on the apical surface for 1 h. At the end of this period, the cells were fixed in 2% formaldehyde, permeabilized in 0.2% Triton-x-100 and blocked in 1% BSA for 1 h. The cells were then stained with mouse antibody to DIG (Roche Biochemicals, Indianapolis, Ind.) for 1 h, followed by Alexa 488 labeled goat anti-mouse secondary antibody for 1 h, and then Alexa 488 labeled rabbit anti-mouse tertiary antibody (Life Technologies, Carlsbad, Calif.). In some cases an Alexa 564 goat anti-mouse secondary antibody was used. The cells were finally stained with nuclear stain, ToPro 3 for 10 minutes. The filter, containing the cells, was removed from the culture insert by cutting the edges with razor blade, and mounted on a slide with Vectashield (Vector Laboratories Inc, Burlingame, Calif.). The cells were visualized by confocal microscopy (Bio-Rad Radience 2100MP Multiphoton/Confocal Microscope, Bio-Rad, Hercules, Calif.).

As to platelet activating factor [PAF], the “silencing of CFTR mRNA levels” value with Human CFTR mRNA was “approximately 30%”. For the same substance, the “amount of internalized DIG-labeled DsiRNA” value in the experiment with HAE is “substantial increase in the amount of internalized label”.
